Measured values: patent publication US9181290B2, “Inhibition of biofilm formation by 1,2,3,4,6-penta-O-galloyl-D-glucopyranose” (CHANG GUNG UNIVERSITY, priority 2011, dated 2015)
“Also recorded” adds a separate entry of the source.

What was measured:
[1] = test system: S. epidermidis ATCC 35547; experiment: Growth (A578) and biofilm (A595) in polystyrene plates; format: cell-based, Staphylococcus epidermidis; details: 12.5 μM β-PGG, 6 hr
Procedure: In addition to the above S. aureus strains, S. epidermidis ATCC 35547 and S. epidermidis RP62A (ATCC 35984) were also studied for comparison.
(§1) An overnight bacterial culture was 200-fold diluted with TSBg, and a 200 μL aliquot of the diluted culture was seeded into each well of 96-well polystyrene microtiter plates and incubated at 37° C. for a designated period of time. Cell growth was determined by measuring the absorbance at 578 nm (A578) with a microtiter plate reader (SpectraMax 340, Molecular Devices). After washing with PBS twice to remove suspended cells, the wells were stained with 0.1% (w/v) crystal violet in 10% ethanol and then treated with 30% acetic acid in dH2O, followed by detecting the absorbance at 595 nm (A595) with the microtiter plate reader to quantify the amount of biofilm formed on polystyrene surface.

[2] = test system: S. aureus SA113 (ATCC 35556); experiment: Bacterial growth (A578) and biofilm formation (crystal violet, A595) in 96-well polystyrene microtiter plates; format: cell-based, Staphylococcus aureus; details: for Biofilm (%) / Growth (%): 6 hours after seeding, control = 100%, mean ± SD
Procedure: as §1
An overnight culture of S. aureus SA113 was 200-fold diluted with TSBg, and a 200 μL aliquot of the diluted culture was seeded into each well of 96-well microtiter plates. Compounds purified from medicinal plants were added into each well at a designated concentration up to […]. At 6 hours after seeding, the amounts of biofilms formed in the wells were determined by crystal violet staining as described above. Cells treated with either distilled water or DMSO were used as a control. The amount of biofilm formation by the control group was set as 100%. Each experiment was repeated at least three times, with n=6 for each sample tested. The concentrations of compounds that inhibited 50% biofilm formation (IB50) were calculated based on logistic regression analysis results. Besides, the biofilm formation inhibition rate of a PGG-treated group was calculated using the following equation (1). Biofilm formation inhibition rate(%)=[(A−B)/A]×100 (1) wherein:
In the wells of 96-well microtiter plates, S. aureus SA113 cells were cultured in TSBg broth in the presence of either β-PGG or α-PGG at different amounts (0, 1 and 10 μM). After incubation at 37° C. for 6 hrs, the cell density was determined by measuring the absorbance at 578 nm (A578), and the amounts of biofilm were quantified by crystal violet staining, with the amount of biofilm formed by untreated bacterial cells being set as 100%. Each experiment was repeated three times, with n=6 for each sample tested.
To determine the effect(s) of (β-PGG upon bacterial growth and biofilm formation, β-PGG in various amounts (final concentration: 0, 1.56, 3.13, 6.25, 12.5, 25 and 50 μM) was added into the culture of S. aureus SA113 during seeding into the wells of polystyrene microtiter plates, followed by incubation at 37° C. for 6 hrs or 24 hrs. Cell growth was determined by measuring the absorbance at 578 nm, and the amount of biofilm formed on polystyrene surface was determined at 595 nm after crystal violet staining. In addition to polystyrene surface, the effect of β-PGG in inhibiting biofilm formation on polycarbonate surface was also examined according to the procedures as described in the preceding section entitled “Materials and methods.”

[3] = test system: S. aureus SA113; experiment: CFU counting of cells adhered to polycarbonate surface; format: cell-based, Staphylococcus aureus
Text: To count the number of viable cells, the removed suspended cells were suspended in PBS by pipetting, and the resultant cell suspension was sonicated and serially diluted and subsequently plated on TSBg agar plate for colony forming unit (CFU) counting according to a method described earlier (S. Schlag et al. (2007), J. Bacteriol., 189:7911-7919).
To quantify the amount of biofilm formed on polycarbonate surface, a 13-mm-diameter polycarbonate disc (Thermanox, Nalgene Nunc International, Rochester, N.Y., USA) was placed in a well of a 24-well microtiter plate, followed by the addition of 1 mL aliquot of the diluted bacterial culture. After incubation at 37° C. for a designated period of time, viable cells were washed off the surface of the polycarbonate disc with PBS and counted as described above, while the PBS-washed polycarbonate disc was subjected to crystal violet staining for biofilm quantification as described above.
In addition to biofilm formation, the number of cells attached to polystyrene surface and polycarbonate surface were also counted.

[4] = test system: Enterococcus faecalis; experiment: Anti-biofilm activity (data not shown); format: cell-based
[5] = test system: icaA gene transcription in S. aureus SA113; experiment: icaA expression by real-time RT-PCR; format: cell-based, Staphylococcus aureus; details: concentrations below 50 μM, 5 hr treatment, normalized to gyrB
Procedure: Bacterial cells were treated with 0.5 mg/mL lysostaphin (Sigma-Aldrich) at 37° C. for 15 min, and total bacterial mRNA was isolated and purified using a TRIzol reagent (Invitrogen) according to the manufacturer's instructions, followed by quantification of icaA expression by real-time RT-PCR (LightCycler, Roche, Mannheim, Germany). The icaA mRNA was reverse-transcribed and amplified using primers A1 (5′-[…]-3′) (SEQ ID NO:1) and B1 (5′-[…]-3′) (SEQ ID NO:2) that were designed based on the sequence of the icaA gene (Gene ID:3921484). […] Amplified PCR products were detected using a Light Cycler-RNA Amplification Kit Cyber Green 1 (Roche, Mannheim, Germany), starting with a cycle of denaturation at 95° C. for 5 min, then running for 45 cycles as follows: at 95° C. for 30 sec, 62° C. for 30 sec and 72° C. for 20 sec. To monitor the specificity of RT-PCR reaction, the PCR products were analyzed by melting curve analysis.
To determine whether the β-PGG inhibition effected at the transcriptional level, total mRNAs were isolated from S. aureus SA113 cells after 5 hr treatment with β-PGG at various concentration (0, 3.13, 12.5 and 50 μM), and transcription of the icaA gene was analyzed by LightCycler quantitative RT-PCR.

O=C(OC[C@H]1O[C@@H](OC(=O)c2cc(O)c(O)c(O)c2)[C@H](OC(=O)c2cc(O)c(O)c(O)c2)[C@@H](OC(=O)c2cc(O)c(O)c(O)c2)[C@@H]1OC(=O)c1cc(O)c(O)c(O)c1)c1cc(O)c(O)c(O)c1 [β-PGG, 1,2,3,4,6-penta-O-galloyl-β-D-glucopyranose]
Growth (A578) ([1]; 0 μM: 0.50 ± 0.01): 0.42 ± 0.01 | Biofilm (A595) ([1]; 0 μM: 1.42 ± 0.09): 0.15 ± 0.11 | viability of S. aureus SA113 cells (A578) ([2]; 1 μM and 10 μM, 6 hour incubation (anomer comparison)): did not affect the viability | reduction of biofilm formation ([2]; 1 μM, 6 hour incubation (anomer comparison)): 10% | killing of S. aureus SA113 ([2]; 10 μM): did not kill S. aureus SA113 | reduction of biofilm formation ([2]; 10 μM, 6 hour incubation (anomer comparison)): 65% | Biofilm (%) ([2]; 10 μM): 5 ± 1% | Growth (%) ([2]; 10 μM): 109 ± 8% | Growth (A578) ([2]; 12.5 μM β-PGG, 6 hr, 0 μM: 0.68 ± 0.02): 0.65 ± 0.03 | Biofilm (A595) ([2]; 12.5 μM β-PGG, 6 hr, 0 μM: 6.31 ± 0.34): 0.26 ± 0.28 | reduction of biofilm formation ([2]; 100 μM, 6 hours): 98% | Biofilm (%) ([2]; 100 μM): 2 ± 0% | Growth (%) ([2]; 100 μM): 69 ± 5 % | amounts of biofilm on polystyrene surface after 24 hr incubation ([2]; 24 hrs): approximately equal to those observed after 6 hr incubation | inhibition at 6.25 µM ([2]; Staphylococcus aureus, ATCC35556, 6.25 μM, 6 hrs, read-out: inhibition of biofilm formation on polystyrene surface): 93% | inhibition at 10 µM ([2]; Staphylococcus aureus, ATCC35556, 10 μM, 6 hr incubation (screening)): 95% | inhibition at 12.5 µM ([2]; Staphylococcus aureus, ATCC35556, 12.5 μM, 6 hrs, read-out: inhibition of biofilm formation on polystyrene surface): 96% | inhibition at 25 µM ([2]; Staphylococcus aureus, ATCC35556, 25 μM, 6 hrs, read-out: inhibition of biofilm formation on polystyrene surface): 97% | inhibition at 100 µM ([2]; Staphylococcus aureus, ATCC35556, 100 μM, 6 hours): 31% | IC50 ([2]; Staphylococcus aureus, ATCC35556, 6 hours, logistic regression, read-out: IB50 (concentration that inhibited 50% biofilm formation)): 3.6 µM | viability of S. aureus SA113 ([2]; concentrations below 50 μM, 6 hours incubation): did not affect the viability; also recorded: did not kill S. aureus SA113 cells | Cell Growth (%) ([2]; growth compared to untreated control at the concentration of IB50): 100% | number of cells attached to polycarbonate surface ([3]; 6.25 μM, 20 min, DMSO control 7×10^5): 2.9×10^5 CFU | number of cells attached to polycarbonate surface ([3]; 6.25 μM, 40 min, DMSO control 1.1×10^6): 2.3×10^5 CFU | number of cells attached to polycarbonate surface ([3]; 6.25 μM, 60 min, DMSO control 2×10^6): 3.5×10^5 CFU | number of cells attached to polycarbonate surface ([3]; 12.5 μM, 20 min, DMSO control 7×10^5): 1.0×10^5 CFU | number of cells attached to polycarbonate surface ([3]; 12.5 μM, 40 min, DMSO control 1.1×10^6): 8×10^4 CFU | number of cells attached to polycarbonate surface ([3]; 12.5 μM, 60 min, DMSO control 2×10^6): 5×10^4 CFU | anti-biofilm activity [4]: potent to mild anti-biofilm activity | transcription of icaA [5]: did not influence the transcription of icaA
